Measured values published in US9302999B2, “Substituted triazoles as herbicides” (E. I. DU PONT DE NEMOURS AND COMPANY, priority 2012, dated 2016).

Tests used:
Type in all cases: in vivo
[1] = tested on: corn (Zea mays); assay: Test F pre-/postemergence: corn; details: Preemergence
Excerpt: (§1) Seeds of plant species selected from corn (Zea mays), soybean (Glycine max), velvetleaf (Abutilon theophrasti), lambsquarters (Chenopodium album), poinsettia, wild (wild poinsettia, Euphorbia heterophylla), pigweed, palmer (palmer pigweed, Amaranthus palmeri), waterhemp (common waterhemp, Amaranthus rudis), surinam grass (Brachiaria decumbens), crabgrass, Brazil (Brazilian crabgrass, Digitaria horizontalis), panicum, fall (fall panicum Panicum dichotomiflorum), crabgrass, large (large crabgrass, Digitaria sanguinalis), foxtail, giant (giant foxtail, Setaria faberii), foxtail, green (green foxtail Setaria viridis), goosegrass (Eleusine indica), ragweed (common ragweed, Ambrosia elatior), barnyardgrass (Echinochloa crus-galli), sandbur (southern sandbur, Cenchrus echinatus), arrowleaf sida (Sida rhombifolia), ryegrass, Italian (Italian ryegrass, Lolium multiflorum), dayflower, VA (Virginia (VA) dayflower, Commelina virginica), field bindweed (Convolvulus arvensis), cocklebur (common cocklebur, Xanthium strumarium), morningglory (Ipomoea coccinea), nightshade (eastern black nightshade, Solanum ptycanthum), kochia (Kochia scoparia), nutsedge, yellow (yellow nutsedge, Cyperus esculentus), johnsongrass (Sorghum halepense), smartweed (ladysthumb smartweed, Polygonum persicaria), and beggarticks (hairy beggarticks, Bidens pilosa), were planted into a silt loam soil and treated preemergence with test chemicals formulated in a non-phytotoxic solvent mixture which included a surfactant. At the same time, plants selected from these crop and weed species and also pigweed (Amaranthus retroflexus), waterhemp_RES1 (ALS/Triazine resistant common waterhemp, Amaranthus rudis) and waterhemp_RES2 (ALS/HPPD resistant common waterhemp, Amaranthus rudis) were planted in pots containing a planting medium comprising spaghnum peat moss, vermiculite, wetting agent and starter nutrients treated with postemergence applications of some of the test chemicals formulated in the same manner. Plants ranged in height from 2 to 18 cm for postemergence treatments (1- to 4-leaf stage).
(§2) Treated plants and controls were maintained in a greenhouse for 14 to 21 days, after which time all species were compared to controls and visually evaluated. Plant response ratings, summarized in Table E, are based on a scale of 0 to 100 where 0 is no effect and 100 is complete control. A dash (-) response means no test result.

[2] = tested on: velvetleaf (Abutilon theophrasti); assay: Test F pre-/postemergence: velvetleaf; details: Preemergence
Excerpt: as §1, §2

[3] = tested on: beggarticks (hairy beggarticks, Bidens pilosa); assay: Test F pre-/postemergence: beggarticks; details: Preemergence
Excerpt: as §1, §2

[4] = tested on: Waterhemp; assay: Test C pre-/postemergence: waterhemp
Excerpt: Seeds of plant species selected from blackgrass (Alopecurus myosuroides), bromegrass, downy (downy bromegrass, Bromus tectorum), foxtail, green (green foxtail, Setaria viridis), ryegrass, Italian (Italian ryegrass, Lolium multiflorum), winter wheat (Triticum aestivum), wild oat (Avena fatua), galium (catchweed bedstraw, Galium aparine), bermudagrass (Cynodon dactylon), surinam grass (Brachiaria decumbens), cocklebur (common cocklebur, Xanthium strumarium), corn (Zea mays), large crabgrass (Digitaria sanguinalis), woolly cupgrass (Eriochloa villosa), foxtail, giant (giant foxtail, Setaria faberii), goosegrass (Eleusine indica), johnsongrass (Sorghum halepense), kochia (Kochia scoparia), lambsquarters (Chenopodium album), morningglory (Ipomoea coccinea), nightshade (eastern black nightshade, Solanum ptycanthum), nutsedge, yellow (yellow nutsedge, Cyperus esculentus), pigweed (Amaranthus retroflexus), ragweed (common ragweed, Ambrosia elation), soybean (Glycine max), common (oilseed) sunflower (Helianthus annuus), Russian thistle (Salsola kali) and velvetleaf (Abutilon theophrasti) were planted into a blend of loam soil and sand and treated preemergence with test chemicals formulated in a non-phytotoxic solvent mixture which included a surfactant.
At the same time, plants selected from these crop and weed species and also barley (winter barley, Hordeum vulgare), canarygrass (Phalaris minor), chickweed (common chickweed, Stellaria media) windgrass (Apera spica-venti) and deadnettle (henbit deadnettle, Lamium amplexicaule) were planted in pots containing Redi-Earth® planting medium (Scotts Company, 14111 Scottslawn Road, Marysville, Ohio 43041) comprising spaghnum peat moss, vermiculite, wetting agent and starter nutrients and treated with postemergence applications of test chemicals formulated in the same manner. Plants ranged in height from 2 to 18 cm (1- to 4-leaf stage) for postemergence treatments.
as §2, with “13” for “14”, “15” for “21”, “C,” for “E,”

[5] = tested on: crabgrass, Brazil (Brazilian crabgrass, Digitaria horizontalis); assay: Test E pre-/postemergence: crabgrass, Brazil; details: scale 0 to 100
Excerpt: (§3) Seeds of plant species selected from corn (Zea mays), soybean (Glycine max), velvetleaf (Abutilon theophrasti), lambsquarters (Chenopodium album), poinsettia, wild (wild poinsettia, Euphorbia heterophylla), pigweed, palmer (palmer pigweed, Amaranthus palmeri), waterhemp (common waterhemp, Amaranthus rudis), smartweed (ladysthumb smartweed, Polygonum persicaria), surinam grass (Brachiaria decumbens), crabgrass, large (large crabgrass, Digitaria sanguinalis), crabgrass, Brazil (Brazilian crabgrass, Digitaria horizontalis), panicum, fall (fall panicum, Panicum dichotomiflorum), foxtail, giant (giant foxtail, Setaria faberii), foxtail, green (green foxtail, Setaria viridis), goosegrass (Eleusine indica), johnsongrass (Sorghum halepense), ragweed (common ragweed, Ambrosia elation), barnyardgrass (Echinochloa crus-galli), sandbur (southern sandbur, Cenchrus echinatus), arrowleaf sida (Sida rhombifolia), ryegrass, Italian (Italian ryegrass, Lolium multiflorum), dayflower, (VA) (Virginia dayflower, Commelina virginica), field bindweed (Convolvulus arvensis), cocklebur (common cocklebur, Xanthium strumarium), morningglory (Ipomoea coccinea), nightshade (eastern black nightshade, Solanum ptycanthum), kochia (Kochia scoparia), nutsedge, yellow (yellow nutsedge, Cyperus esculentus) and beggarticks (hairy beggarticks, Bidens pilosa) were planted into a silt loam soil and treated preemergence with test chemicals formulated in a non-phytotoxic solvent mixture which included a surfactant. At the same time, plants selected from these crop and weed species were planted in pots containing a growing medium comprising spaghnum peat moss, vermiculite, wetting agent and starter nutrients and treated with postemergence applications of some of the test chemicals formulated in the same manner. Plants ranged in height from 2 to 18 cm for postemergence treatments (1- to 4-leaf stage).
as §2

[6] = tested on: foxtail, green (green foxtail, Setaria viridis); assay: Test E pre-/postemergence: foxtail, green; details: Preemergence, scale 0 to 100
Excerpt: as §3, §2

[7] = 16 g ai/ha, scale 0 to 100 (0 no effect, 100 complete control)
[8] = 31 g ai/ha, scale 0 to 100 (0 no effect, 100 complete control)

| Compound | Plant response rating, Corn [1, 7] | Plant response rating, Corn [1, 8] | Plant response rating, Corn ([1]; 62 g ai/ha, scale 0 to 100) | Plant response rating, Corn ([1]; 125 g ai/ha, scale 0 to 100) | Plant response rating, Velvetleaf [2, 7] | Plant response rating, Velvetleaf [2, 8] | Plant response rating, Velvetleaf ([2]; 125 g ai/ha, scale 0 to 100) | Plant response rating, Beggarticks [3, 7] | Plant response rating, Beggarticks [3, 8] | Plant response rating, Beggarticks ([3]; 62 g ai/ha, scale 0 to 100) | Plant response rating, Beggarticks ([3]; 125 g ai/ha, scale 0 to 100) | Plant response rating: Crabgrass, Brazil ([5]; Preemergence, 16 g ai/ha) | Plant response rating: Crabgrass, Brazil ([5]; Preemergence, 31 g ai/ha) | Plant response rating: Crabgrass, Brazil ([5]; Preemergence, 62 g ai/ha) | Plant response rating: Crabgrass, Brazil ([5]; Preemergence, 125 g ai/ha) | Plant response rating: Foxtail, Green ([6]; 16 g ai/ha) | Plant response rating: Foxtail, Green ([6]; 31 g ai/ha) | Plant response rating: Foxtail, Green ([6]; 62 g ai/ha) | Plant response rating: Foxtail, Green ([6]; 125 g ai/ha) | other results |
| --- | --- | --- | --- | --- | --- | --- | --- | --- | --- | --- | --- | --- | --- | --- | --- | --- | --- | --- | --- | --- |
| CCCc1nn(-c2ccc(F)cc2)nc1Cc1ccnc(C(F)(F)F)c1 [Compound 153] | 0 | 0 | 0 | 0 | 20 | 50 | 98 | 0 | 25 | 35 | 65 | – | – | – | – | – | – | – | – | Plant response rating, Corn ([1]; 250 g ai/ha, scale 0 to 100): 10; Plant response rating, Velvetleaf ([2]; 250 g ai/ha, scale 0 to 100): 100; Plant response rating, Waterhemp ([4]; Preemergence, 250 g ai/ha, scale 0 to 100, 0 no effect, 100 complete control): 100 |
| Cc1nn(-c2ccc(F)cc2)nc1Oc1ccnc(C(F)(F)F)c1 [Compound 129, 4-[[2-(4-fluorophenyl)-5-methyl-2H-1,2,3-triazol-4-yl]oxy]-2-(trifluoromethyl)pyridine] | – | – | – | – | – | – | – | – | – | – | – | 15 | 60 | 95 | 100 | 60 | 100 | 100 | 100 | Plant response rating: Crabgrass, Brazil ([5]; Preemergence, 8 g ai/ha): 10; Plant response rating: Foxtail, Green ([6]; 8 g ai/ha): 0 |
| CCCc1nn(-c2ccc(C(F)(F)F)c(F)c2)nc1Oc1ccnc(C(F)(F)F)c1 [Compound 185] | – | – | – | – | – | – | – | – | – | – | – | – | – | – | – | – | – | – | – | Plant response rating, Waterhemp ([4]; Postemergence, 31 g ai/ha, scale 0 to 100 (0 no effect, 100 complete control)): 90 |
| Cc1nn(-c2ccc(C(F)(F)F)cc2)nc1Cc1ccnc(C(F)(F)F)c1 [Compound 47, 4-[[5-methyl-2-[4-(trifluoromethyl)phenyl]-2H-1,2,3-triazol-4-yl]methyl]-2-(trifluoromethyl)pyridine] | – | – | – | – | – | – | – | – | – | – | – | 35 | 80 | 100 | 100 | 85 | 100 | 100 | 100 | Plant response rating: Crabgrass, Brazil ([5]; Postemergence, 250 g ai/ha): 50; Plant response rating: Crabgrass, Brazil ([5]; Postemergence, 16 g ai/ha): 20; Plant response rating: Crabgrass, Brazil ([5]; Postemergence, 31 g ai/ha): 30; Plant response rating: Crabgrass, Brazil ([5]; Postemergence, 62 g ai/ha): 40; Plant response rating: Crabgrass, Brazil ([5]; Postemergence, 125 g ai/ha): 40; Plant response rating: Crabgrass, Brazil ([5]; Preemergence, 250 g ai/ha): 100; Plant response rating: Foxtail, Green ([6]; 250 g ai/ha): 100 |
| Fc1ccc(-n2nc(Cc3ccnc(C(F)(F)F)c3)c(OCC(F)(F)F)n2)cc1 [Compound 142] | 0 | 0 | 0 | 0 | 0 | 0 | 75 | 0 | 40 | 65 | 75 | – | – | – | – | – | – | – | – | – |
